Molecules are shown by their SMILES.

The values that follow come from article PMC10770758, “Protocatechuate hydroxylase is a novel group A flavoprotein monooxygenase with a unique substrate recognition mechanism” (The Journal of Biological Chemistry, 2023).

Common to all, as to assay type: binding
The target of one assay is T1, OtPobA (Ottowia thiooxydans, UniProt A0ABV2Q8W8).
T1 construct: gene ABIE13_002600; codon-optimised gene in modified pET28a, His-tagged, E. coli BL21 Star (DE3), HisTrap
T1 sequence (A0ABV2Q8W8 1-392): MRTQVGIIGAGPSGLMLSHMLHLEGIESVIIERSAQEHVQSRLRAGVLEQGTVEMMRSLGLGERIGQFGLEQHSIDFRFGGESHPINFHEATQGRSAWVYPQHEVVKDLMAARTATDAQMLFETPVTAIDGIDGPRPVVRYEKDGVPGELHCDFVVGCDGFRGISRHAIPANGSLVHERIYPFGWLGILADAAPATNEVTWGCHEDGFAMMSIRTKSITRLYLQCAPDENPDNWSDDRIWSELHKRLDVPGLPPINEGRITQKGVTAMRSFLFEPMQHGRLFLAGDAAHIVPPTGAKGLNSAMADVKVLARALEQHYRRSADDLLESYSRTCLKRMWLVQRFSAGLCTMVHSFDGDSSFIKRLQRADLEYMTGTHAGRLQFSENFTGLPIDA
The assay is described as follows: HPLC of heat-released flavin; absorption spectrum. As to conditions: prosthetic group.

A further assay addresses T2, XaPobA (Xylophilus ampelinus, UniProt A0AAJ6N6I2).
T2 construct: gene praI; codon-optimised gene in modified pET28a, 6xHis tag, E. coli BL21 Star (DE3), HisTrap; homodimer in crystal
T2 sequence (A0AAJ6N6I2 1-391): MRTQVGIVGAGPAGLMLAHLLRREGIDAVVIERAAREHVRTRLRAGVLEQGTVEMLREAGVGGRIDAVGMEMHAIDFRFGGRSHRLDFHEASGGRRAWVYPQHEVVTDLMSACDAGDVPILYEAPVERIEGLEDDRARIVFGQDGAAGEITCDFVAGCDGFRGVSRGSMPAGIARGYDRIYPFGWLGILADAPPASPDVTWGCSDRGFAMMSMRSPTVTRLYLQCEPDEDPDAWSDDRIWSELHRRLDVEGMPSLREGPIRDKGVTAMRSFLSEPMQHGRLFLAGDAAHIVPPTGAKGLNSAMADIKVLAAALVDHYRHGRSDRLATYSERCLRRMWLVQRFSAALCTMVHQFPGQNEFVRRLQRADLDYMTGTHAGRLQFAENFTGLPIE
The assay is described as follows: X-ray crystal structure; HPLC of heat-released flavin. The settings on record: oxidized form, prosthetic group.

The target in another assay is T3, PkPobA (Pigmentiphaga kullae, UniProt A0A4Q7NA79).
T3 construct: gene EV675_5624; codon-optimised gene in modified pET28a, His-tagged, E. coli BL21 Star (DE3), HisTrap
T3 sequence (A0A4Q7NA79 1-391): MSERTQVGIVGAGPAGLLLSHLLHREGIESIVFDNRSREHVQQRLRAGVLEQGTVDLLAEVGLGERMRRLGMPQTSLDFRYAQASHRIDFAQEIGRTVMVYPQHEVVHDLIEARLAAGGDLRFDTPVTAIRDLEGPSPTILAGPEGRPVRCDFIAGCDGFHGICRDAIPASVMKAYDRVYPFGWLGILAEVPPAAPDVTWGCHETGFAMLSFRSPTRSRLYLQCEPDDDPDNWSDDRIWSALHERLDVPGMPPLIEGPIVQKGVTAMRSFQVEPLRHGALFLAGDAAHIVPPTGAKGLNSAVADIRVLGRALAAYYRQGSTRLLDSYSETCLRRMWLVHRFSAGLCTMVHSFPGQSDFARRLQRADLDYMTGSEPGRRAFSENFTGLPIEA
The assay is described as follows: HPLC of heat-released flavin; absorption spectrum. As to conditions: prosthetic group.

As for `Cc1cc2nc3c(=O)[nH]c(=O)nc-3n(C[C@H](O)[C@H](O)[C@H](O)COP(=O)(O)OP(=O)(O)OC[C@H]3O[C@@H](n4cnc5c(N)ncnc54)[C@H](O)[C@@H]3O)c2cc1C` [FAD, flavin adenine dinucleotide], the “HPLC of heat-released flavin; absorption spectrum” value was “indicating that XaPobA, OtPobA, and PkPobA use FAD as a prosthetic group” at OtPobA; “indicating that XaPobA, OtPobA, and PkPobA use FAD as a prosthetic group” on PkPobA. Moreover, at XaPobA, the “X-ray crystal structure; HPLC of heat-released flavin” value is reported as “homodimer, with each unit binding an oxidized form of FAD in its active site”.
